Where “and” joins values, the source holds several entries; their conditions need not be identical. Equal values may be shown once. Read-outs that look alike come from different tables or passages of the source.
Assays:
TMD8 tumor xenografts = assay: TMD8 xenograft in NOD-SCID mice; type: in vivo, mouse
Excerpt: TMD8 cells were engrafted into 8-week-old female NOD.CB17-Prkdc^scid/J (NOD-SCID) mice from The Jackson Laboratory by subcutaneous injection of 10 × 10^6 cells resuspended in 50% Cultrex Basement Membrane Extract (R&D Systems, catalog 3632-010-02) into the right flank. OCI-Ly3 cells were engrafted into 5-week-old female NOD.Cg-Prkdc^scid Il2rg^tm1Wjl/SzJ (NSG) mice from The Jackson Laboratory by subcutaneous injection of 2.5 × 10^6 cells resuspended in Cultrex as above. OCI-Ly1 cells were engrafted into 6.5-week-old female NSG mice from The Jackson Laboratory by subcutaneous injection of 20 × 10^6 cells resuspended in Cultrex as above. For all xenograft models, when tumors reached an average volume of 100 mm^3, mice were randomized to receive M1i-124 (50 mg/kg i.p. per day), or equivalent volume of DMSO vehicle (50 μL i.p. per day). […] Tumor size was measured 3 times a week using a caliper and calculated using the formula (smallest diameter^2 × largest diameter)/2. Mice were sacrificed 24 hours after the last injection. Mice were sacrificed when the largest tumors reached 2,500 mm^3. For TMD8 xenograft experiments, tumors and various organs, including lung, heart, liver, and kidney, were collected and fixed in 10% buffered formalin, embedded in FFPE blocks, sectioned, and stained with H&E. Sections were evaluated by a board-certified pathologist.

[1] = In vivo pharmacokinetics, plasma LC-MS/MS
Method: Pharmacokinetic and cytochrome P450 inhibition studies. Studies were performed with the assistance of Touchstone Biosciences (Plymouth Meeting, Pennsylvania). For pharmacokinetic bioanalysis, male CD-1 mice were fasted overnight before being dosed with M1i-124 via oral gavage (20mg/kg), intraperitoneal injection in the lower right quadrant of the abdomen (20 mg/kg), or intravenous tail vein injection (5 mg/kg). All blood samples were taken via tail vein at 5, 15, and 30 minutes, and 1, 2, 4, 6, 8, and 24 hours after compound administration. The plasma concentration of the compound was determined using LC-MS/MS analysis. […]

human primary T cells = assay: Human T cell apoptosis, annexin V; type: cell-based
Method: Annexin V Alexa 488
(ThermoFisher Scientific, Cat# A13201) and SYTOX Blue Dead Cell (ThermoFisher Scientific, Cat# S34857) stains were used to detect apoptosis in DLBCL cells after treatment with 1 µM compounds for 8 days in TMD8 and OCI-Ly1 and for 5 days in OCI-Ly3 cells, then analyzed with flow cytometry. The percentages of cells in early and late apoptosis were combined for […]
quantification. […]
Human T cell apoptosis. Human CD4/CD8 T cells were isolated from blood using Pan T Cell Isolation Kit (Miltenyi Biotec, Cat# 130-096-535), IRB exemption STUDY21080109. T cells were incubated with DynabeadsTM Human T-Activator CD3/CD28 (Thermo Fisher Scientific, Cat# 11131D) for 72 hours after which cells were grown in RPMI containing 10% FBS and IL-2 (Peprotech, Cat# 200-02). T cells were treated with M1i-124 (1 µM) or DMSO control with media change/drug treatment every 2-4 days. Apoptosis was evaluated on day 6 as described previously except that annexin V 647 was utilized (Invitrogen, A23204). Data is from 3 independent donors. […]

O=S(=O)(NCc1ccc2c(c1)OCO2)c1ccc(Cc2ccc(S(=O)(=O)NCc3ccc4c(c3)OCO4)cc2)cc1 [M1i-124]
growth of TMD8 tumor xenografts (tumor volume, terminal tumor weight) (TMD8 tumor xenografts; 50 mg/kg i.p. per day, 12 days, vs DMSO, result in words): significantly suppressed | body weight of xenograft mice (TMD8 tumor xenografts; at conclusion of experiment, result in words): slightly lower body weights | microscopic evaluation of major organs (TMD8 tumor xenografts; heart, lung, liver, adrenal, kidney, result in words): no signs of histologic abnormality | Terminal body weights (TMD8 tumor xenografts; individual mice): 17.69 g and 19.26 g and 19.45 g and 20.17 g and 20.3 g and 20.4 g and 20.6 g and 20.42 g | clinical signs during treatment (TMD8 tumor xenografts; result in words): No abnormal clinical signs or indicators of adverse reaction were observed | Plasma concentration (IP) ([1]; IP, 0.083 hours): 0.658 µg/mL and 0.561 µg/mL | Plasma concentration (IP) ([1]; IP, 0.25 hours): 0.72 µg/mL and 0.607 µg/mL | Plasma concentration (IP) ([1]; IP, 0.5 hours): 0.775 µg/mL and 0.671 µg/mL | Plasma concentration (IP) ([1]; IP, 1 hours): 0.437 µg/mL and 0.307 µg/mL | Plasma concentration (IP) ([1]; IP, 2 hours): 0.242 µg/mL and 0.173 µg/mL | Plasma concentration (IP) ([1]; IP, 4 hours): 0.11 µg/mL and 0.0865 µg/mL | Plasma concentration (IP) ([1]; IP, 6 hours): 0.0594 µg/mL | Plasma concentration (IP) ([1]; IP, 8 hours): 0.0381 µg/mL and 0.0354 µg/mL | Plasma concentration (IP) ([1]; IP, 24 hours): 0.00787 µg/mL | Plasma concentration (IV) ([1]; IV, 0.083 hours): 2.08 µg/mL and 1.44 µg/mL | Plasma concentration (IV) ([1]; IV, 0.25 hours): 1.32 µg/mL and 1.02 µg/mL | Plasma concentration (IV) ([1]; IV, 0.5 hours): 0.302 µg/mL | Plasma concentration (IV) ([1]; IV, 1 hours): 0.115 µg/mL and 0.152 µg/mL | Plasma concentration (IV) ([1]; IV, 2 hours): 0.0306 µg/mL and 0.029 µg/mL | Plasma concentration (IV) ([1]; IV, 4 hours): 0.0163 µg/mL | Plasma concentration (IV) ([1]; IV, 6 hours): 0.0127 µg/mL and 0.0163 µg/mL | Plasma concentration (IV) ([1]; IV, 8 hours): 0.0126 µg/mL | Plasma concentration (IV) ([1]; IV, 24 hours): 0.00297 µg/mL and 0.00388 µg/mL | Plasma concentration (PO) ([1]; PO, 0.083 hours): 0.306 µg/mL and 0.267 µg/mL | Plasma concentration (PO) ([1]; PO, 0.25 hours): 0.0565 µg/mL and 0.0861 µg/mL | Plasma concentration (PO) ([1]; PO, 0.5 hours): 0.0572 µg/mL | Plasma concentration (PO) ([1]; PO, 1 hours): 0.0259 µg/mL and 0.0218 µg/mL | Plasma concentration (PO) ([1]; PO, 2 hours): 0.0147 µg/mL and 0.0157 µg/mL | Plasma concentration (PO) ([1]; PO, 4 hours): 0.0131 µg/mL | Plasma concentration (PO) ([1]; PO, 6 hours): 0.00973 µg/mL and 0.0115 µg/mL | Plasma concentration (PO) ([1]; PO, 8 hours): 0.00844 µg/mL and 0.00962 µg/mL | Plasma concentration (PO) ([1]; PO, 24 hours): 0.00239 µg/mL and 0.00274 µg/mL | concentration at 6 h ([1]; male, CD-1, mouse, in vivo, ip, 20 mg/kg, IP, 6 hours, read-out: Plasma concentration (IP)): 0.0548 µg/mL | concentration at 24 h ([1]; male, CD-1, mouse, in vivo, ip, 20 mg/kg, IP, 24 hours, read-out: Plasma concentration (IP)): 0.00717 µg/mL | concentration at 0.5 h ([1]; male, CD-1, mouse, in vivo, iv, 5 mg/kg, IV, 0.5 hours, read-out: Plasma concentration (IV)): 0.412 µg/mL | concentration at 4 h ([1]; male, CD-1, mouse, in vivo, iv, 5 mg/kg, IV, 4 hours, read-out: Plasma concentration (IV)): 0.0204 µg/mL | concentration at 8 h ([1]; male, CD-1, mouse, in vivo, iv, 5 mg/kg, IV, 8 hours, read-out: Plasma concentration (IV)): 0.0109 µg/mL | concentration at 0.5 h ([1]; male, CD-1, mouse, in vivo, po, 20 mg/kg, PO, 0.5 hours, read-out: Plasma concentration (PO)): 0.0426 µg/mL | concentration at 4 h ([1]; male, CD-1, mouse, in vivo, po, 20 mg/kg, PO, 4 hours, read-out: Plasma concentration (PO)): 0.0154 µg/mL | concentration at 0.083 h ([1]; male, CD-1, mouse, plasma, ip, 20 mg/kg, IP, 0.083 hours, read-out: Plasma concentration (IP)): 0.451 µg/mL | concentration at 0.25 h ([1]; male, CD-1, mouse, plasma, ip, 20 mg/kg, IP, 0.25 hours, read-out: Plasma concentration (IP)): 0.509 µg/mL | concentration at 0.5 h ([1]; male, CD-1, mouse, plasma, ip, 20 mg/kg, IP, 0.5 hours, read-out: Plasma concentration (IP)): 0.596 µg/mL | concentration at 1 h ([1]; male, CD-1, mouse, plasma, ip, 20 mg/kg, IP, 1 hours, read-out: Plasma concentration (IP)): 0.349 µg/mL | concentration at 2 h ([1]; male, CD-1, mouse, plasma, ip, 20 mg/kg, IP, 2 hours, read-out: Plasma concentration (IP)): 0.259 µg/mL | concentration at 4 h ([1]; male, CD-1, mouse, plasma, ip, 20 mg/kg, IP, 4 hours, read-out: Plasma concentration (IP)): 0.126 µg/mL | concentration at 6 h ([1]; male, CD-1, mouse, plasma, ip, 20 mg/kg, IP, 6 hours, read-out: Plasma concentration (IP)): 0.0753 µg/mL | concentration at 8 h ([1]; male, CD-1, mouse, plasma, ip, 20 mg/kg, IP, 8 hours, read-out: Plasma concentration (IP)): 0.0532 µg/mL | concentration at 24 h ([1]; male, CD-1, mouse, plasma, ip, 20 mg/kg, IP, 24 hours, read-out: Plasma concentration (IP)): 0.00914 µg/mL | Cmax ([1]; male, CD-1, mouse, plasma, ip, mice, 20 mg/kg i.p., read-out: mean peak plasma concentration (Cmax)): 0.681 µg/mL | half-life ([1]; male, CD-1, mouse, plasma, ip, mice, 20 mg/kg i.p., read-out: t1/2 (converted)): 6.33 h | concentration at 0.083 h ([1]; male, CD-1, mouse, plasma, iv, 5 mg/kg, IV, 0.083 hours, read-out: Plasma concentration (IV)): 2.07 µg/mL | concentration at 0.25 h ([1]; male, CD-1, mouse, plasma, iv, 5 mg/kg, IV, 0.25 hours, read-out: Plasma concentration (IV)): 1.2 µg/mL | concentration at 0.5 h ([1]; male, CD-1, mouse, plasma, iv, 5 mg/kg, IV, 0.5 hours, read-out: Plasma concentration (IV)): 0.361 µg/mL | concentration at 1 h ([1]; male, CD-1, mouse, plasma, iv, 5 mg/kg, IV, 1 hours, read-out: Plasma concentration (IV)): 0.122 µg/mL | concentration at 2 h ([1]; male, CD-1, mouse, plasma, iv, 5 mg/kg, IV, 2 hours, read-out: Plasma concentration (IV)): 0.0243 µg/mL | concentration at 4 h ([1]; male, CD-1, mouse, plasma, iv, 5 mg/kg, IV, 4 hours, read-out: Plasma concentration (IV)): 0.0134 µg/mL | concentration at 6 h ([1]; male, CD-1, mouse, plasma, iv, 5 mg/kg, IV, 6 hours, read-out: Plasma concentration (IV)): 0.0116 µg/mL | concentration at 8 h ([1]; male, CD-1, mouse, plasma, iv, 5 mg/kg, IV, 8 hours, read-out: Plasma concentration (IV)): 0.00884 µg/mL | concentration at 24 h ([1]; male, CD-1, mouse, plasma, iv, 5 mg/kg, IV, 24 hours, read-out: Plasma concentration (IV)): 0.00262 µg/mL | C0 ([1]; male, CD-1, mouse, plasma, iv, mice, 5 mg/kg i.v., read-out: mean initial plasma concentration): 1.86 µg/mL | Vd ([1]; male, CD-1, mouse, plasma, iv, mice, 5 mg/kg i.v., read-out: steady-state volume of distribution (Vss)): 15.4 L/kg | clearance ([1]; male, CD-1, mouse, plasma, iv, mice, 5 mg/kg i.v., read-out: systemic clearance): 4.67 L/h/kg | half-life ([1]; male, CD-1, mouse, plasma, iv, mice, 5 mg/kg i.v., read-out: terminal half-life (t1/2) (converted)): 8.72 h | concentration at 0.083 h ([1]; male, CD-1, mouse, plasma, po, 20 mg/kg, PO, 0.083 hours, read-out: Plasma concentration (PO)): 0.31 µg/mL | concentration at 0.25 h ([1]; male, CD-1, mouse, plasma, po, 20 mg/kg, PO, 0.25 hours, read-out: Plasma concentration (PO)): 0.0782 µg/mL | concentration at 0.5 h ([1]; male, CD-1, mouse, plasma, po, 20 mg/kg, PO, 0.5 hours, read-out: Plasma concentration (PO)): 0.0358 µg/mL | concentration at 1 h ([1]; male, CD-1, mouse, plasma, po, 20 mg/kg, PO, 1 hours, read-out: Plasma concentration (PO)): 0.0225 µg/mL | concentration at 2 h ([1]; male, CD-1, mouse, plasma, po, 20 mg/kg, PO, 2 hours, read-out: Plasma concentration (PO)): 0.0177 µg/mL | concentration at 4 h ([1]; male, CD-1, mouse, plasma, po, 20 mg/kg, PO, 4 hours, read-out: Plasma concentration (PO)): 0.0115 µg/mL | concentration at 6 h ([1]; male, CD-1, mouse, plasma, po, 20 mg/kg, PO, 6 hours, read-out: Plasma concentration (PO)): 0.0131 µg/mL | concentration at 8 h ([1]; male, CD-1, mouse, plasma, po, 20 mg/kg, PO, 8 hours, read-out: Plasma concentration (PO)): 0.0117 µg/mL | concentration at 24 h ([1]; male, CD-1, mouse, plasma, po, 20 mg/kg, PO, 24 hours, read-out: Plasma concentration (PO)): 0.00318 µg/mL | half-life ([1]; male, CD-1, mouse, plasma, po, mice, 20 mg/kg p.o., read-out: t1/2 (converted)): 8.76 h | Cmax ([1]; male, CD-1, mouse, plasma, mice, 20 mg/kg oral, read-out: Cmax): 0.294 µg/mL | adverse clinical signs during PK studies ([1]; mice, 24 hours, result in words): No adverse clinical signs were observed | Annexin (% positivity) (human primary T cells; human primary T cells, 1 µM, day 6): 5.305% and 5.353% and 4.227% | apoptosis of human primary T cells (human primary T cells; vs untreated control, result in words): no difference

From article PMC11996864, “A small-molecule inhibitor of BCL10-MALT1 interaction abrogates progression of diffuse large B cell lymphoma” (The Journal of Clinical Investigation, 2025)
